Results: article PMC7806714, “Statins for the prevention of proliferative vitreoretinopathy: cellular responses in cultured cells and clinical statin concentrations in the vitreous” (Scientific Reports, 2021)
Like-named read-outs stand apart in the source and are kept apart here.

Key:
IL-6 = assay: ELISA of LPS-induced IL-6 release from ARPE-19 cells
ARPE-19 cells = assay: LDH release assay (cell membrane integrity); format: cell-based, human
Method: Cell viability was assessed by determining the amount of LDH enzyme from culture media using a commercial kit (Promega Corporation, USA) according to the manufacturer’s protocol. This assay provides information about the integrity of the plasma membranes of the cells (high LDH levels meaning cell damage). In addition, the cell viability was examined with MTT assay, as described previously. In viable cells, the mitochondrial succinate dehydrogenase enzyme can metabolize the MTT dye into formazan that absorbs light at the 550 nm wavelength.

IL-8 = assay: ELISA of LPS-induced IL-8 release from ARPE-19 cells; conditions: 5 µM, 24 h prior to LPS
[1] = Calculated average steady-state plasma (Eq. 1) and expected vitreal concentrations (Eq. 3); set-up: species or system human; conditions: for Calc. Cv: expected vitreal, Eq. 3; for Css,av: plasma, Eq. 1
Method: The concentrations of statins and their metabolites in the vitreous were analysed (see above) and expressed as ng/mL concentrations. These concentrations were compared to published statin concentrations in plasma. […] Maximum concentrations in plasma and the area under the concentration vs time curve values were collected. The expected average statin concentrations in plasma during multiple dose treatment were calculated for the doses that the patients received in our study (Eq. 1):1 Css,av=AUCsingledose/τ where τ is the time interval between doses. The drug concentrations in plasma (C, Cmax, Css, av) include both unbound (Cu) and protein-bound drug. The values for protein binding were obtained from the summary of drug product characteristics for each statin. The free fraction of statin in plasma was calculated based on Eq. (2):2 fu=CuC
The expected drug concentrations in the patients’ vitreous samples were calculated according to Eq. (3)3 Cv=fu×Css,av
Equation (3) assumes that the vitreal drug concentrations equilibrate with the unbound drug concentrations in plasma, because only free drug is expected to cross the blood-ocular barriers.

[2] = free fraction of drug in plasma; ref summary of product characteristics document; cited from earlier work
MCP-1 = assay: ELISA of LPS-induced MCP-1 release from ARPE-19 cells
[3] = UPLC-MS/MS statin and metabolite concentrations in vitreous of vitrectomy patients on oral statins; format: in vivo, human
Method: The study was conducted according to the tenets of the Declaration of Helsinki, and was approved by the Institutional Review Board and Ethical committee of Helsinki University Central Hospital. Twenty patients were enrolled; fifteen with per oral statin treatment and five controls. Signed informed consent was obtained from each participant prior to the vitreous sampling. Confidentiality of the patient records was maintained when the clinical data were entered into a computer-based standardized data entry for analysis. Sixteen patients were being operated due to PDR; of these, five patients had also Tractional Retinal Detachment (TRD); two patients were operated due to RRD, one due to age-related epiretinal fibrosis (pucker), and one due to a macular hole (Supplementary Table S2). […] All vitrectomies were performed by the recruiting vitreoretinal surgeon (SL). […] The samples were collected by manual aspiration into a syringe via the vitrectomy with the cutting function activated. Sample aliquots were transferred into sterile 1.5 mL microcentrifuge tubes (Freemont, CA, USA) and immediately frozen and stored at − 70 °C until laboratory analysis. […] All reference compounds and internal standards were purchased from Toronto Research Chemicals (Toronto, Canada). Samples (100 µl) were divided into two aliquots and kept at − 80 °C prior to analysis. […] Homogenizer blocks were pre-cooled by placing them at − 20 °C. […] Supernatants (120 µl) were pipetted into analytical vials and the concentrations of the statins were measured with Ultra-high Pressure Liquid Chromatography—tandem Mass Spectrometry (UPLC-MS/MS) technique. The same pre-treatment protocol was used to prepare calibration curves and quality control samples but homogenized and filtered porcine vitreous were used as a matrix instead of human vitreous. A minimum of six calibration curve concentrations was used for quantitation of the compounds. Two parallel calibration curve sets included all eleven analytes and four deuterated internal standards. Three quality control samples in three parallel sets were used to validate the method. The linear range varied from approximately 0.004 to 10 ng/mL depending on the analyte. Limit of quantitation was set to the smallest calibration curve point of each drug. Each sample was analysed twice and the average of these values was designated as the concentration of the sample. […] For rosuvastatin, two metabolites were analysed: rosuvastatin lactone and N-desmethyl rosuvastatin lactone. Rosuvastatin D6 was used as an internal standard. The parent drug, its metabolites and internal standard were analysed from the same sample in each case. Liquid chromatography separation was carried out using a Waters Acquity UPLC instrument (Waters, MA, USA) coupled with Waters HSS T3 C18 (2.1 × 100 mm, 1.8 µm) column at 40 °C. The mobile phase consisted of 0.1% formic acid in ultrapure water (A) and 100% of LC–MS grade acetonitrile (B). […] The flow rate was set to 0.3 mL/min and injection volume 1.5 µl. After every three samples, a solvent blank was run to control for any carry over. Mass spectrometry measurements were carried out using a Waters Xevo Triple Quadruple mass spectrometer (TQ-S) equipped with an ESI source. […] The source parameters were as follows: Capillary voltage 2.8 kV, source temperature 150 °C and desolvation temperature 500 °C. Nitrogen (Aga, Helsinki, Finland) was used as a desolvation gas (800 l/h), a cone gas (150 l/h) and a nebulizer gas (7 bar). Argon (Aga, Helsinki, Finland) was used as a collision gas (0.15 mL/min). The Multiple Reaction Monitoring (MRM) mode was used for quantification. Precursor and fragment ions, as well as other optimized parameters are listed in Supplementary Table S3.

[4] = plasma, cited from earlier work
[5] = 48 h exposure prior to LPS, 1.5, 5, 10 µM tested
[6] = oral 20 mg/d, patients' vitreous
[7] = 10 mg/d single oral dose, n=12, China, ref [30]
[8] = 10 mg/d single oral dose, n=18, Germany, ref [31]
[9] = 20 mg/d single oral dose, n=6, UK, ref [32]
[10] = 20 mg/d single oral dose, n=12, Chinese, ref [30]

CC(C)c1nc(N(C)S(C)(=O)=O)nc(-c2ccc(F)cc2)c1/C=C/[C@@H](O)C[C@@H](O)CC(=O)O [Rosuvastatin]
LPS-induced release of IL-6 (IL-6; 5 µM, 24 h prior to LPS (rosuvastatin: DMSO and water)): reduced | LPS-induced release of IL-6 (IL-6; 10 µM, 24 h prior to LPS (rosuvastatin: DMSO and water)): reduced | LPS-induced release of IL-6 (IL-6; [5]): decreasing trends | LDH levels / cell membrane integrity (ARPE-19 cells; 24 h exposure, with LPS, dissolved in DMSO): more damage to the cell membrane | LDH levels / cell membrane integrity (ARPE-19 cells; 24 h exposure, without LPS, dissolved in DMSO): protected the integrity of the cell membrane | LDH levels / cell membrane integrity (ARPE-19 cells; 48 h exposure, with LPS, dissolved in DMSO): protect cells from LPS-induced cell membrane rupturing | LDH levels / cell membrane integrity (ARPE-19 cells; 48 h exposure, dissolved in DMSO): acute toxic effects on the cell membrane | LDH levels / cell membrane integrity (ARPE-19 cells; dissolved in water, 48 h, with LPS): interfered with the cell membrane integrity | LDH levels (ARPE-19 cells; dissolved in water, within 24 h, irrespective of LPS): did not cause any changes in the LDH levels | LPS-induced release of IL-8 (IL-8): reduced | Calc. Cv ([1]; 10 mg/d, China study [30]): 0.513 ng/mL | Calc. Cv ([1]; 10 mg/d, Germany study [31]): 0.242 ng/mL | Calc. Cv ([1]; 20 mg/d, Chinese study [30]): 0.883 ng/mL | Calc. Cv ([1]; 20 mg/d, UK study [32]): 0.314 ng/mL | Css,av ([1]; 10 mg/d, China study [30]): 4.27 ng/mL | Css,av ([1]; 10 mg/d, Germany study [31]): 2.02 ng/mL | Css,av ([1]; 20 mg/d, Chinese study [30]): 7.36 ng/mL | Css,av ([1]; 20 mg/d, UK study [32]): 2.62 ng/mL | fu [2]: 0.12 | LPS-induced release of MCP-1 (MCP-1; 5 µM, 24 h prior to LPS): decreased | LPS-induced release of MCP-1 (MCP-1; [5]): decreasing trends | vitreous concentration range ([3]; 10–20 mg daily, oral): 52 to 316 pg/mL | Measured Cv Average ([3]; oral 10 mg/d, patients' vitreous): 0.055 ng/mL | Measured Cv Range (lower) [3, 6]: 0.052 ng/mL | Measured Cv Range (upper) [3, 6]: 0.316 ng/mL | Concentration in vitreous sample ([3]; patient 359, Pucker, diabetes, oral rosuvastatin 20 mg): 0.056 ng/mL | Concentration in vitreous sample ([3]; patient 371, PDR, dose 0* (control without reported statin treatment)): 0.241 ng/mL | Concentration in vitreous sample ([3]; patient 383, PDR, oral rosuvastatin 10 mg): 0.055 ng/mL | Concentration in vitreous sample ([3]; patient 397, PDR, oral rosuvastatin 20 mg): 0.168 ng/mL | Concentration in vitreous sample ([3]; patient 412, PDR, oral rosuvastatin 20 mg): 0.316 ng/mL | Concentration in vitreous sample ([3]; patient 428, MH, diabetes, not DR, oral rosuvastatin 20 mg): 0.052 ng/mL | AUC0−∞ [4, 7]: 103 ng·h/mL | Cmax [4, 7]: 10.8 ng/mL | AUC0−∞ [4, 8]: 48.4 ng·h/mL | Cmax [4, 8]: 4.5 ng/mL | AUC0−∞ [4, 9]: 63.1 ng·h/mL | Cmax [4, 9]: 6.1 ng/mL | AUC0−∞ [4, 10]: 177 ng·h/mL | Cmax [4, 10]: 19.2 ng/mL
